# Laboratory results taken from patent US7186741B2, “Neurotensin active 2,3,diaryl-pyrazolidine derivatives” (Solvay Pharmaceuticals B.V., priority 2002, dated 2007).
# System: enzymes which degrade the neuropeptide neurotensin
# Assay: pharmacological activity of stereoisomers/racemates (test not specified)
# Type: biochemical
# Settings: result in words; comparison of enantiomers or diastereomeric racemates
# Source text: The invention relates to a group of new 2,3-diaryl-pyrazolidine derivatives having inhibiting activity on enzymes which degrade the neuropeptide neurotensin.
# The compounds according to the invention are active in inhibiting the abovementioned enzymes in the range of 5.0–8.0 (plC50 values), when tested according to the methods described in Biochem. J. 280, 421–426, and Eur. J. Biochem. 202, 269–276.
compound,measurement,value
O=C(NCC(=O)N1CCC(c2ccccc2Cl)N1c1ccccc1Cl)NC1C2CC3CC(C2)CC1C3 (stereo not shown) [Compound A12],"pharmacological activity (active / inactive racemate, eutomer)",eutomer
